{
  "source": "paper PMC4950264",
  "about": "(Molecular Ecology, 2016)",
  "target": "T1, CYP6Z1 (Anopheles funestus, UniProt Z9NKG6IF05)",
  "T1 sequence (Z9NKG6IF05 1-492)": "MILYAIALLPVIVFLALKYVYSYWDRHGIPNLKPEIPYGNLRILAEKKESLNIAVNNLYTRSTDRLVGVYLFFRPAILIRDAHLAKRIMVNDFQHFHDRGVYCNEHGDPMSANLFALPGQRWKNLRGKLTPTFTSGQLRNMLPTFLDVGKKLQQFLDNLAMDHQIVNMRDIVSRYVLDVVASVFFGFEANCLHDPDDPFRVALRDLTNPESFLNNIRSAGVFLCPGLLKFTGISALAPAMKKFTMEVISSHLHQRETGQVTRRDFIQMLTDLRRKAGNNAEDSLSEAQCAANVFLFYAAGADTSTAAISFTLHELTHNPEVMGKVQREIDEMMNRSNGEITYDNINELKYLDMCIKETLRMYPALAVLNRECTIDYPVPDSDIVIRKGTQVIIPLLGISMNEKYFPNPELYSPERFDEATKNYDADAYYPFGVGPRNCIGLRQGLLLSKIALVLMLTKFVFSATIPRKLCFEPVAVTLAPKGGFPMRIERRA",
  "data": [
    {"smiles": "Clc1ccc(C(c2ccc(Cl)cc2)C(Cl)(Cl)Cl)cc1", "note": "[DDT]", "values": [
      {"measurement": "IC50", "value": 8.9, "unit": "µM"}
    ]},
    {"smiles": "CNC(=O)Oc1cccc2c1OC(C)(C)O2", "note": "[bendiocarb]", "values": [
      {"measurement": "IC50", "value": 9.5, "unit": "µM"}
    ]}
  ]
}
